Marks after values point to notes of the source that are not given here.
Tests used:
Type in all cases: in vivo
Botrytis cinerea = assay: Test C: tomato Botrytis on tomato seedlings, sprayed the day before inoculation, visual disease rating; settings: 100 = 100% disease control; for pest or weed control at 200 ppm: Botrytis cinerea, 120 h
Method in brief: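 Disease ratings refer to tomato seedlings treated by run-off spraying with compound suspensions, mostly 200 ppm (500 g/ha equivalent) and in marked cases 40 ppm. Carrier: acetone/purified water 50/50 with 250 ppm polyhydric alcohol ester surfactant, after predissolving in acetone.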

Alternaria solani = assay: Test D: tomato early blight, sprayed the day before inoculation, visual disease rating; settings: 100 = 100% disease control; for pest or weed control at 200 ppm: Alternaria solani, 168 h
Method in brief: (§1)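 Acetone solution (3% of final volume) of each compound is suspended in 50/50 acetone/water with 250 ppm Trem® 014. Plants are sprayed to run-off at 200 ppm, equivalent to 500 g/ha, or at 40 ppm for starred values.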

Septoria nodorum = assay: Test F: wheat glume blotch on wheat seedlings, sprayed the day before inoculation, visual disease rating; settings: 100 = 100% disease control; for pest or weed control at 200 ppm: Parastagonospora nodorum, 264 h
Method in brief: as §1

Septoria tritici = assay: Test G: wheat leaf blotch on wheat seedlings, sprayed the day before inoculation, visual disease rating; settings: 100 = 100% disease control; for pest or weed control at 200 ppm: Zymoseptoria tritici, 504 h
Method in brief: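 Seedlings receive a protective spray of test suspension in acetone/water carrying 250 ppm surfactant, mostly at 200 ppm and at 40 ppm where marked. They are inoculated the next day, kept saturated at 24° C for 48 h, then held at 20° C for 19 days before visual scoring.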

[1] = test system: Puccinia recondita f. sp. tritici; assay: Test H: wheat leaf rust, test suspension sprayed after inoculation of wheat seedlings, visual disease rating; settings: 100 = 100% disease control; for pest or weed control at 200 ppm: Puccinia recondita, 96 h
Method in brief: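 Wheat seedlings inoculated with P. recondita spores, held 24 h saturated at 20 °C, then 2 days in growth chamber at 20 °C; compound suspension (acetone/water with Trem 014) sprayed to run-off afterwards. Rated visually; 200 ppm (≈500 g/ha) unless marked *, which denotes 40 ppm.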

[2] = test system: Puccinia recondita f. sp. tritici; assay: Test I: wheat leaf rust on wheat seedlings, sprayed the day before inoculation, visual disease rating; settings: 100 = 100% disease control; for pest or weed control at 200 ppm: Puccinia recondita, 168 h
Method in brief: as §1

[3] = test system: Erysiphe graminis f. sp. tritici; assay: Test J: wheat powdery mildew on wheat seedlings, sprayed the day before inoculation, visual disease rating; settings: 100 = 100% disease control; for pest or weed control at 200 ppm: Blumeria graminis, 168 h
Method in brief: as §1

[4] = 200 ppm, 0 = no control relative to controls
[5] = 40 ppm (marked *), 0 = no control

Compound | Test C disease control rating (Botrytis cinerea; [4]) [%] | Test D disease control rating (Alternaria solani; [4]) [%] | Test F disease control rating (Septoria nodorum; [4]) [%] | Test G disease control rating (Septoria tritici; [4]) [%] | Test H disease control rating [1, 4] [%] | Test I disease control rating [2, 4] [%] | Test J disease control rating [3, 4] [%] | other results
Cc1nc(Cl)c(-c2c(F)cc(F)cc2F)n1-c1ccc(OC(F)F)cc1 [compound 610] | 99 | 100 | 99 | 99 | 100 | 100 | 100 | –
Fc1cc(-n2c(Cl)nc(Cl)c2-c2c(F)cncc2F)ccc1Cl [compound 593] | 100 | 100 | 99 | 96 | 99 | 100 | 100 | –
CC(=O)Nc1ccc(-n2c(Cl)nc(Cl)c2-c2c(F)cccc2F)cc1 [compound 637] | – | – | – | – | – | – | – | Test C disease control rating (Botrytis cinerea; 40 ppm (marked *)): 97* %; Test D disease control rating (Alternaria solani; 40 ppm (marked *)): 0* %; Test F disease control rating (Septoria nodorum; 40 ppm (marked *)): 0* %; Test G disease control rating (Septoria tritici; 40 ppm (marked *)): 92* %; Test H disease control rating ([1]; 40 ppm (marked *)): 0* %; Test I disease control rating ([2]; 40 ppm (marked *)): 65* %; Test J disease control rating ([3]; 40 ppm (marked *)): 0* %
CCOc1ccc(F)c(-c2c(Cl)nc(C)n2-c2cccc(F)c2)c1F [compound 724] | 100 | 100 | 97 | 98 | 0 | 100 | 99 | –
COc1cc(F)c(-c2c(C)nnn2-c2ccc(Cl)cc2)c(F)c1 [compound 628] | 99 | 100 | 0 | 100 | 0 | 99 | 99 | –
5-[4-chloro-5-(2,6-difluoro-4-methoxyphenyl)-1H-imidazol-1-yl]-2-(trifluoromethyl)pyridine [Example 34] | – | – | – | – | – | – | – | Test C disease control rating (Botrytis cinerea; 40 ppm (marked *)): 99* %; Test D disease control rating (Alternaria solani; 40 ppm (marked *)): 100* %; Test F disease control rating (Septoria nodorum; 40 ppm (marked *)): 99* %; Test G disease control rating (Septoria tritici; 40 ppm (marked *)): 90* %; Test H disease control rating ([1]; 40 ppm (marked *)): 91* %; Test I disease control rating ([2]; 40 ppm (marked *)): 100* %; Test J disease control rating ([3]; 40 ppm (marked *)): 100* %
COc1cc(F)c(-n2c(Br)nc(C)c2-c2ccc(C)cc2)c(F)c1 [compound 525] | – | – | – | – | – | – | – | Test C disease control rating (Botrytis cinerea; 40 ppm (marked *)): 100* %; Test D disease control rating (Alternaria solani; 40 ppm (marked *)): 100* %; Test F disease control rating (Septoria nodorum; 40 ppm (marked *)): 80* %; Test G disease control rating (Septoria tritici; 40 ppm (marked *)): 98* %; Test H disease control rating ([1]; 40 ppm (marked *)): 68* %; Test I disease control rating ([2]; 40 ppm (marked *)): 100* %; Test J disease control rating ([3]; 40 ppm (marked *)): 98* %
COc1cc(F)c(-c2c(Cl)nc(C=O)n2-c2ccc(F)cc2)c(F)c1 [Compound 276, 4-chloro-5-(2,6-difluoro-4-methoxyphenyl)-1-(4-fluorophenyl)-1H-imidazole-2-carboxaldehyde] | – | – | – | – | – | – | – | pest or weed control at 200 ppm (Botrytis cinerea; 200 ppm, 0 = no control): 100%; pest or weed control at 200 ppm (Alternaria solani; 200 ppm, 0 = no control): 100%; pest or weed control at 200 ppm (Septoria nodorum; 200 ppm, 0 = no control): 0%; pest or weed control at 200 ppm (Septoria tritici; 200 ppm, 0 = no control): 92%; pest or weed control at 200 ppm ([1]; 200 ppm, 0 = no control): 9%; pest or weed control at 200 ppm ([2]; 200 ppm, 0 = no control): 98%; pest or weed control at 200 ppm ([3]; 200 ppm, 0 = no control): 100%
Cc1nc(Br)c(Cc2c(F)cc(F)cc2F)n1-c1c(Cl)cccc1Cl [compound 538] | 99 | 0 | 0 | 99 | 27 | 100 | 100 | –
Fc1ccc(F)c(-c2c(Br)nc(Cl)n2-c2ccc(Cl)cc2)c1F [compound 351] | 100 | 100 | 99 | 93 | 54 | 100 | 100 | –
Fc1ccc(-n2c(Br)nc(Br)c2-c2c(F)ccc(F)c2F)cc1 [compound 384] | – | – | – | – | – | – | – | Test C disease control rating (Botrytis cinerea; [5]): 100* %; Test D disease control rating (Alternaria solani; [5]): 99* %; Test F disease control rating (Septoria nodorum; [5]): 0* %; Test G disease control rating (Septoria tritici; [5]): 95* %; Test H disease control rating [1, 5]: 0* %; Test I disease control rating [2, 5]: 67* %; Test J disease control rating [3, 5]: 95* %
COc1cc(F)c(-c2c(Cl)nc(Br)n2-c2ccc(C(F)(F)F)nc2)c(F)c1 [Compound 707, 5-[2-bromo-4-chloro-5-(2,6-difluoro-4-methoxyphenyl)-1H-imidazol-1-yl]-2-(trifluoromethyl)pyridine] | – | – | – | – | – | – | – | pest or weed control at 200 ppm (Botrytis cinerea; [4]): 100%; pest or weed control at 200 ppm (Alternaria solani; [4]): 100%; pest or weed control at 200 ppm (Septoria nodorum; [4]): 100%; pest or weed control at 200 ppm (Septoria tritici; [4]): 99%; pest or weed control at 200 ppm [1, 4]: 67%; pest or weed control at 200 ppm [2, 4]: 100%; pest or weed control at 200 ppm [3, 4]: 100%
COc1cc(F)c(-c2c(Cl)nc(Cl)n2-c2ccc(OC)nc2Cl)c(F)c1 [compound 515] | 97 | 99 | 0 | 100 | 100 | 100 | 100 | –
COc1ccc(F)c(-c2c(Cl)ncn2-c2cccc(C)c2)c1F [compound 300] | 99 | 98 | 0 | 91 | 48 | 97 | 99 | –
Cc1ccc(-n2c(Cl)nc(Cl)c2-c2c(F)ccc(C#N)c2F)cc1 [compound 680] | 99 | 100 | 98 | 100 | 0 | 100 | 100 | –
COc1ccc(F)c(-c2c(Cl)nc(Br)n2Cc2ccc(Cl)cc2)c1F [compound 289] | – | – | – | – | – | – | – | Test C disease control rating (Botrytis cinerea; 200 ppm, 0 = no control): 100%; Test D disease control rating (Alternaria solani; 200 ppm, 0 = no control): 96%; Test F disease control rating (Septoria nodorum; 200 ppm, 0 = no control): 0%; Test G disease control rating (Septoria tritici; 200 ppm, 0 = no control): 94%; Test H disease control rating ([1]; 200 ppm, 0 = no control): 11%; Test I disease control rating ([2]; 200 ppm, 0 = no control): 94%; Test J disease control rating ([3]; 200 ppm, 0 = no control): 97%
COc1cc(F)c(-c2c(Br)nc(Br)n2-c2ccc(C)cc2)c(F)c1 [compound 524] | – | – | – | – | – | – | 97 | Test C disease control rating (Botrytis cinerea; 40 ppm (marked *)): 99* %; Test D disease control rating (Alternaria solani; 40 ppm (marked *)): 100* %; Test F disease control rating (Septoria nodorum; 40 ppm (marked *)): 60* %; Test G disease control rating (Septoria tritici; 40 ppm (marked *)): 98* %; Test H disease control rating ([1]; 40 ppm (marked *)): 85* %; Test I disease control rating ([2]; 40 ppm (marked *)): 99* %
Cc1nc(Br)n(-c2ccc(Cl)nc2)c1-c1c(F)cccc1F [compound 682] | 100 | 100 | 99 | 100 | 97 | 100 | 100 | –
COc1ccc(-n2c(Cl)nc(Cl)c2-c2c(F)cccc2F)c(Cl)n1 [compound 620] | 100 | 99 | 90 | 98 | 100 | 100 | 99 | –
COc1cc(F)c(-c2c(Cl)ncn2Cc2ccc(Cl)nc2)c(F)c1 [compound 669] | 100 | 100 | 99 | 99 | 73 | 98 | 0 | –
COc1cc(F)c(-c2c(Cl)nc(SC)n2-c2ccc(C)cc2)c(F)c1 [compound 695] | 100 | 99 | 97 | 99 | 97 | 99 | 96 | –

Reference: patent US20110045101A1, “FUNGICIDAL SUBSTITUTED AZOLES” (E.I. Du Pont De Nemours and Company, priority 2009, published 2011)
